The record followed here is patent US20230313296A1, “USING FLUORESCENT COLLAGEN α 1(I) AND α 2(I) mRNAs TO SCREEN DRUG CANDIDATES” (Florida State University Research Foundation, Inc., priority 2022, published 2023).

Data set [1] concerns collagen ɑ1(I) 5′SL mRNA (2AP at G10). Nature of the data set: Fluorescence measurement of the fluorescent ɑ1(I) 5′SL compound with test compound. Format: binding, human. To be noted: test compound added in micromolar concentrations; FIG. 5 top panel. An excerpt:
When the first fluorescent compound has the fluorophore 2AP substituted at the G10 position of the collagen ɑ1(I) 5′ stem loop mRNA and the fluorescence intensity increases, this indicates the first fluorescent compound has bound to LARP6.
(§1) The fluorescence intensity of the 2AP and PC fluorophores depends on their environment in the RNA fold, and the environment changes upon LARP6 or test compound binding to the RNA. The increase in fluorescence is seen if a fluorophore rotates outwards from its position within the RNA. This was seen when LARP6 bound to the fluorescent ɑ1(I) 5′SL compound. The fluorescence decreases if a fluorophore is masked by the bound drug or LARP6.
(§2) Referring to FIG. 5, the fluorescence measurements were performed using epirubicin as the test compound or drug.

Data set [2] concerns collagen ɑ2(I) 5′SL mRNA (PC at C37). In words: Fluorescence measurement of the fluorescent ɑ2(I) 5′SL compound with test compound. In kind it is binding, human. The conditions noted are these: increasing drug concentrations; FIG. 5 bottom panel.
From the text: When the second fluorescent compound has the fluorophore PC at the C37 position of the collagen ɑ2(I) 5′ stem loop mRNA and the fluorescence intensity decreases when contacted with LARP6, this indicates binding of the second fluorescent compound to LARP6.
as §1, §2

The test system of data set [3] is complex of recombinant LA-domain of LARP6 with 5′SL RNA. In words: Gel mobility shift assay of LA-domain/5′SL RNA complex. The conditions noted are these: FIG. 6 lanes 4 and 5. In kind it is binding. The text has this:
FIG. 6 is a gel mobility shift assay showing free RNA (RNA) and complex of LA-domain bound to RNA (RNA/LA). Lane 1 contains RNA only. Lane 2 contains the RNA/LA complex in absence of the test compound. Lanes 3-5 show dissociation of RNA/LA complexes with the test compound.
The inhibitory effect of this test compound on LARP6 binding was directly tested by gel mobility shift experiments, the results of which are in FIG. 6. This assay confirms the formation of a protein/RNA complex by physically separating them from free RNA. Without the test compound, the recombinant LA-domain of LARP6 formed a complex with 5′SL RNA (FIG. 6, lane 2, RNA/LA). […] This proves that the fluorescent 5′SL RNA compounds can be used to identify molecules that interact with 5′SL RNA and that are competitors of LARP6 binding and may be antifibrotic drugs.

Data set [4] addresses T1, recombinant LA-domain of LARP6 (Homo sapiens, UniProt Q9BRS8).
T1 construct: recombinant LA-domain of LARP6
T1 sequence (Q9BRS8 86-177 limits assumed): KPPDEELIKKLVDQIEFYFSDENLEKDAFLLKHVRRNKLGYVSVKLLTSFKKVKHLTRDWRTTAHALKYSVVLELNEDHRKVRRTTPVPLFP
Nature of the data set: Fluorescence of the fluorescent ɑ1(I) 5′SL compound on LA-domain binding. To be noted: saturating amounts of LA-domain vs free compound; p<0.0001; FIG. 3. The procedure:
The increase resulted from flipping of the 2AP at the G10 position out of the fold. The increase in intensity of the excitation spectrum (left, measured at 370 nm emission) and the emission spectrum (right, measured at 310 nm excitation) were apparent when increasing concentrations of recombinant LA-domain of LARP6 were added to the sensor. The LA-domain is necessary and sufficient for 5′SL RNA recognition by LARP6 and recapitulates the full size LARP6 binding.
The increase in intensity of fluorescence emission with binding of the LA-domain was quantified by measuring the fluorescence of free fluorescent ɑ1(I) 5′SL compound and the same compound bound with saturating amounts of the LA-domain.
The intensity increased about 2-fold with statistical significance of p<0.0001.

For data set [5], the target named is T1, recombinant LA-domain of LARP6. In words: Fluorescence of the fluorescent ɑ2(I) 5′SL compound on LA-domain binding. The conditions noted are these: increasing concentrations of recombinant LA-domain; FIG. 4. An excerpt:
This compound was less bright because its fluorophore has an emission that is about 7-fold less intense than that of the fluorescent ɑ1(I) 5′SL compound.
(§3) The decrease in the excitation spectrum (left, measured at 450 nm emission) and the emission spectrum (right, measured at 340 nm excitation) with increasing concentrations of recombinant LA-domain is shown in FIG. 5.

Data set [6] addresses T2, LARP6 LA-domain (UniProt Q9BRS8 Q9BRS8:86-177).
T2 sequence: T1 sequence (Q9BRS8 86-177 limits assumed)
In words: pyrrolo-cytidine fluorescence decreases with increasing LA-domain. To be noted: label: pyrrolo-cytidine at position 37; 5' stem-loop.
From the text: as §3

With `COc1cccc2c1C(=O)c1c(O)c3c(c(O)c1C2=O)C[C@@](O)(C(=O)CO)C[C@@H]3O[C@H]1C[C@H](N)[C@@H](O)[C@H](C)O1` [epirubicin], in data set [1], the “change of fluorescence intensity of the fluorescent ɑ1(I) 5′SL compound” value is “decreased in the concentration dependent manner”. Further, in data set [2], the “change of fluorescence intensity of the fluorescent ɑ2(I) 5′SL compound” value is “decrease in fluorescence with increasing drug concentrations”. The “concentration of test compound at which formation of RNA/LA complex was diminished” value in data set [3] is recorded as greater than 50 µM.
In the case of “fluorescent ɑ1(I) 5′SL compound: SEQ ID NO: 1 collagen ɑ1(I) 5′SL RNA with G10 nucleotide substituted with 2-amino-purine (2AP) (CCACAAAGAGUCUACAUGUCUAGGGUCUAGACAUGUUCAGCUUUGUGG; G10 replaced by 2-aminopurine; listed as Homo sapiens)”, in data set [4], the “increase in intensity of fluorescent emission on binding of the LA-domain” value was “about 2 fold”.
For “fluorescent ɑ2(I) 5′SL compound: SEQ ID NO: 2 collagen ɑ2(I) 5′SL RNA with C37 nucleotide substituted with pyrrolo-cytidine (PC)”, the “fluorescence response to LA-domain binding” value in data set [5] is “decreasing its fluorescence”.

B1: fluorescent collagen a2(I) 5'SL (ssRNA)
RNA: CACAAGGAGUCUGCAUGUCUAAGUGCUAGACAUGCUCAGCUUUGUG
modifications: C37 substituted with pyrrolo-cytidine
For the molecule B1, in data set [6], the binding result was “binds”.
